Like-named read-outs stand apart in the source and are kept apart here. Marks after values point to notes of the source that are not given here.
What was measured:
CcilCSP2 = CcilCSP2 (Corythucha ciliata, UniProt A0A2S0M1B9); experiment: Fluorescence competitive binding assay with 1-NPN
Experimental: Briefly, the sequence of CcilCSP2 encoding the mature CSP protein was expressed in Escherichia coli BL21 (DE3) competent cells (Transgen). Cells were grown at 37°C until OD600 ≈ 0.60, when expression was induced with 1 mM IPTG. After incubating an additional 8 h at 28°C, cells were harvested by centrifugation. The purification of CcilCSP2 was performed using HisTrap affinity columns (GE Healthcare Biosciences, Uppsala, Sweden).

sycamore lace bug nymphs [1] = experiment: Petri dish test, behavioral response of nymphs; format: in vivo, Corythucha ciliata; conditions: for Chi-square value, choice of nymphs: compound vs. hexane, 20 μl on filter paper, 5 min; for behavioral response of nymphs: petri dish
Experimental: One test was conducted in a petri dish (15 cm diameter) at 22–26°C. Two filter papers (3 cm diameter) were placed symmetrically on both sides of the petri dish. 20 μl of the compound to be tested (1, 0.1 or 0.01 μg/μl) was added to one filter paper. 20 μl hexane was added as a control to the other filter paper. The filter papers were placed at a distance of 5 cm from the start position at the center of the petri dish where 40 sycamore lace bug nymphs were released. The number of nymphs on each filter paper was recorded after 5 min. Each assay was replicated four times with a new petri dish for each replicate. The choice between hexane and a blank was also tested. […] The numbers of insect on each filter paper were compared using chi-square analysis.

sycamore lace bug nymphs [2] = experiment: Plant leaf test, repellency rate of nymphs; format: in vivo, Corythucha ciliata; conditions: for behavioral response of nymphs: plant leaves
Experimental: To further confirm the behavioral effects of each active substance, the behavioral response of sycamore lace bug nymphs was tested by directly applying the compounds to a P. × acerifolia leaf. […] Photographs were then taken at 0, 2, and 4 min to assess the repellency rate, which was calculated using the following formula: Repellency rate = M/T^*100, where T = the total number of sycamore lace bug nymphs in the tested colony at 0 min, and M = the number of sycamore lace bug nymphs that had moved at 2 or 4 min. Experimental conditions were the same as for the petri dish experiments. Hexane was used as the mock treatment. The repellency rates of the nymphs in each treatment were compared using a Kruskal Wallis H-test followed by Mann-Whitney U-tests.

sycamore lace bug nymphs [3] = experiment: Petri dish test, behavioral response of nymphs; format: in vivo, Corythucha ciliata; conditions: Geraniol vs. Phenyl benzoate
sycamore lace bug adults = experiment: Y-shaped olfactometer, behavioral response of adults; format: in vivo, Corythucha ciliata; conditions: Y-tube; for χ2, choice of adults: P > 0.05; for behavioral response of adults: 1 and 0.1 μg/μl
Experimental: Compounds that potentially bind with high affinity to CSPs were purchased from Sigma (St Louis, MO, USA) to test their effects on sycamore lace bug behavior. The behavioral response of sycamore lace bug adults (1:1 sex ratio) was assessed using a Y-shaped olfactometer. The length of the arms and the diameter of the tube were 10 and 5 cm, respectively. The authentic standards were dissolved in hexane at concentrations of 1 and 0.1 μg/μl. Then 10 μl of solution was applied to a 1 cm^2 filter paper. The filter paper was placed in one arm of the Y-shaped olfactometer, and 10 μl hexane was placed in the other arm as a control. The amount of airflow was set at 250 ml/min. In each experiment, a single sycamore lace bug adult was released at the base of the olfactometer stem and observed for 10 min. During this time, insects not making any choice were recorded as having “no response”. Insects entering more than halfway into the olfactometer arm and staying for at least 10 s were recorded as having a “response”. After 10 insects were tested, the orientation of the Y-shaped olfactometer was reversed to avoid environmental effects, and the inner wall was cleaned with degreased cotton containing acetone, washed with ethanol, and then washed with distilled water and dried in an oven. The experiment was conducted in a behavioral observation chamber at 26°C. The experiment was repeated seven times, and each time the behavior of 10 insects was tested. The choice of insects between chemicals and hexane was compared using chi-square analysis.

c18915_g1 = target: T1, c18915_g1 (Corythucha ciliata, UniProt A0A2S0M1C0); experiment: direct fluorescence titration; format: binding; conditions: fluorescent probe; conditions presumably as for CcilCSP2
T1 construct: gene CSP8; full length 133 aa
T1 sequence (A0A2S0M1C0 22-133): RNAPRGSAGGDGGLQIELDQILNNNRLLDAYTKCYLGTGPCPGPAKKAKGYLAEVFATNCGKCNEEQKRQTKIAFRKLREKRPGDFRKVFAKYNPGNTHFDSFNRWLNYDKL

Sequence of CcilCSP2 (A0A2S0M1B9 entry or part of it): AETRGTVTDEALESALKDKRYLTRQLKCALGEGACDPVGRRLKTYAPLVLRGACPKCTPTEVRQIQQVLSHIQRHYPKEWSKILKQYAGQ

Q: Which Kd (CcilCSP2) does the source give for `c1ccc(Nc2cccc3ccccc23)cc1` [1-NPN, N-Phenyl-1-naphthylamine] here?
A: Its Kd is 2.08 µM.

Q: With `Cc1ccc(C(C)C)cc1` [p-Cymene] as the compound, how does the “Chi-square value, choice of nymphs” value (sycamore lace bug nymphs [1]; 0.01 μg/μl) read?
A: The value was 0.083.

Q: And the “Chi-square value, choice of nymphs” value (sycamore lace bug nymphs [1]; 0.1 μg/μl)?
A: The value was 0.026.

Q: And the “Chi-square value, choice of nymphs” value (sycamore lace bug nymphs [1]; 1 μg/μl)?
A: The value was 0.048.

Q: With `Cc1ccc(C(C)C)c(O)c1` [Thymol] as the compound, how does the “Chi-square value, choice of nymphs” value (sycamore lace bug nymphs [1]; 0.01 μg/μl) read?
A: The value was 0.400.

Q: What about the “Chi-square value, choice of nymphs” value (sycamore lace bug nymphs [1]; 0.1 μg/μl) of the same compound?
A: The value was 0.111.

Q: And the “Chi-square value, choice of nymphs” value (sycamore lace bug nymphs [1]; 1 μg/μl)?
A: Its value is 0.125.

Q: What does the source list for `c1ccc2ccccc2c1` [Naphthalene]?
A: Chi-square value, choice of nymphs (sycamore lace bug nymphs [1]; 0.01 μg/μl): 0.243; Chi-square value, choice of nymphs (sycamore lace bug nymphs [1]; 0.1 μg/μl): 1.190; Chi-square value, choice of nymphs (sycamore lace bug nymphs [1]; 1 μg/μl): 0.333

Q: Which “Chi-square value, choice of nymphs” value (sycamore lace bug nymphs [1]; 0.01 μg/μl) does the source give for `CC(C)=CCC/C(C)=C/CO` [Geraniol, E-3,7-dimethyl-2,6-octadien-1-ol, reference compound] here?
A: The value was 5.444^a^*.

Q: And the “Chi-square value, choice of nymphs” value (sycamore lace bug nymphs [1]; 0.1 μg/μl)?
A: Its value is 10.965^**.

Q: And the “Chi-square value, choice of nymphs” value (sycamore lace bug nymphs [1]; 1 μg/μl)?
A: The value was 13.928^**.

Q: What about the “behavioral response of nymphs” value (sycamore lace bug nymphs [1]) of the same compound?
A: Its value is “significantly repelled”.

Q: And the Kd (CcilCSP2)?
A: Its Kd is 15.2 µM.

Q: And the “Displacement of 1-NPN” value (CcilCSP2; competitive binding)?
A: The value was “more than 50%”.

Q: What about the repellency rate (sycamore lace bug nymphs [2]; 2 min, 0.01 μg/μl) of the same compound?
A: The repellency rate was 25%^*.

Q: What about the repellency rate (sycamore lace bug nymphs [2]; 2 min, 0.1 μg/μl) of the same compound?
A: The repellency rate was 50%^*.

Q: And the repellency rate (sycamore lace bug nymphs [2]; 2 min, 1 μg/μl)?
A: The repellency rate was 72.41%^*.

Q: What about the repellency rate (sycamore lace bug nymphs [2]; 4 min, 0.01 μg/μl) of the same compound?
A: Its repellency rate is 25%^*.

Q: What about the repellency rate (sycamore lace bug nymphs [2]; 4 min, 0.1 μg/μl) of the same compound?
A: The repellency rate was 57.14%^*.

Q: And the repellency rate (sycamore lace bug nymphs [2]; 4 min, 1 μg/μl)?
A: Its repellency rate is 79.41%^*.

Q: And the “behavioral response of nymphs” value (sycamore lace bug nymphs [2])?
A: Its value is “significantly repelled”.

Q: And the “Chi-square value, choice of nymphs” value (sycamore lace bug nymphs [3]; 0.01 μg/μl)?
A: Its value is 0.214.

Q: What about the “Chi-square value, choice of nymphs” value (sycamore lace bug nymphs [3]; 0.1 μg/μl) of the same compound?
A: The value was 0.267.

Q: And the “Chi-square value, choice of nymphs” value (sycamore lace bug nymphs [3]; 1 μg/μl)?
A: Its value is 0.083.

Q: What about the “χ2, choice of adults” value (sycamore lace bug adults; 0.1 μg/μl vs. hexane) of the same compound?
A: Its value is 1.52.

Q: And the “χ2, choice of adults” value (sycamore lace bug adults; 1 μg/μl vs. hexane)?
A: Its value is 0.069.

Q: And the “behavioral response of adults” value (sycamore lace bug adults)?
A: Its value is “not significantly affected”.

Q: For `O=C(Oc1ccccc1)c1ccccc1` [Phenyl benzoate], which “Chi-square value, choice of nymphs” value (sycamore lace bug nymphs [1]; 0.01 μg/μl) is on record?
A: The value was 0.615.

Q: And the “Chi-square value, choice of nymphs” value (sycamore lace bug nymphs [1]; 0.1 μg/μl)?
A: Its value is 14.629^**.

Q: What about the “Chi-square value, choice of nymphs” value (sycamore lace bug nymphs [1]; 1 μg/μl) of the same compound?
A: Its value is 5.818^*.

Q: What about the “behavioral response of nymphs” value (sycamore lace bug nymphs [1]) of the same compound?
A: Its value is “significantly repelled”.

Q: And the “Displacement of 1-NPN” value (CcilCSP2; competitive binding)?
A: Its value is “more than 50%”.

Q: What about the Kd (CcilCSP2; competitive binding, 1-NPN as fluorescent reporter, calculated from IC50, read-out: KD) of the same compound?
A: The Kd was 13.9 µM.

Q: And the repellency rate (sycamore lace bug nymphs [2]; 2 min, 0.01 μg/μl)?
A: Its repellency rate is 12%.

Q: What about the repellency rate (sycamore lace bug nymphs [2]; 2 min, 0.1 μg/μl) of the same compound?
A: The repellency rate was 50%^*.

Q: What about the repellency rate (sycamore lace bug nymphs [2]; 2 min, 1 μg/μl) of the same compound?
A: Its repellency rate is 63.16%^*.

Q: What about the repellency rate (sycamore lace bug nymphs [2]; 4 min, 0.01 μg/μl) of the same compound?
A: Its repellency rate is 13%.

Q: And the repellency rate (sycamore lace bug nymphs [2]; 4 min, 0.1 μg/μl)?
A: Its repellency rate is 57.14%^*.

Q: And the repellency rate (sycamore lace bug nymphs [2]; 4 min, 1 μg/μl)?
A: Its repellency rate is 73.68%^*.

Q: And the “behavioral response of nymphs” value (sycamore lace bug nymphs [2])?
A: The value was “repellent effect of phenyl benzoate was further confirmed”.

Q: What about the “χ2, choice of adults” value (sycamore lace bug adults; 0.1 μg/μl vs. hexane) of the same compound?
A: The value was 0.083.

Q: And the “χ2, choice of adults” value (sycamore lace bug adults; 1 μg/μl vs. hexane)?
A: Its value is 0.176.

Q: And the “behavioral response of adults” value (sycamore lace bug adults)?
A: The value was “not significant”.

Q: For `c1ccc(Nc2cccc3ccccc23)cc1` [1-NPN], which Kd (c18915_g1) is on record?
A: The Kd was “Affinity of c18915_g1 for 1-NPN”.
